# Patent publication US10975056B2 (GlaxoSmithKline Intellectual Property Development Limited, priority 2016, dated 2021)
# Several values for one entry are separate records, joined by “and”; a condition that tells them apart may be missing. Equal entries are not always repeated. Structures can show the parent of a compound that is named as a salt. Where two headings read alike, the source gives them in different places.
# What was measured:
# [1] = biological target: DNMT1 (Homo sapiens, UniProt P26358); assay: DNMT1 biochemical activity, breaklight assay and/or SPA assay
# [2] = tested on: erythroid progenitor cells (EPCs); assay: Fetal hemoglobin (HbF) ELISA in day 7 erythroid progenitor cells; type: cell-based, human; details: Homo sapiens, Erythroid progenitor cell, HbF ELISA, day 7 EPCs, 5 days; read-out: EPC ELISA (pEC50 category) (converted);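 further: for fetal hemoglobin induction normalized to vehicle-treated cells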
# In short: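 Read-out was OD450 from an HRP/TMB sandwich ELISA on lysates, normalized to DMSO-only control wells. Thawed day 7 EPCs from human marrow CD34+ cells had been treated for 5 days at 37° C with Compound A, 22 concentrations […].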
# [3] = binned activity in either the breaklight or the SPA assay
# [4] = binned activity in either the breaklight or the SPA assay, read-out: DNMT1 BioChemical (pIC50 category) (converted)
# [5] = breaklight assay and/or SPA assay, repeated experimental runs, read-out: average pIC50 against DNMT1 (converted)
# Chain of DNMT1 (P26358 whole entry, looked up): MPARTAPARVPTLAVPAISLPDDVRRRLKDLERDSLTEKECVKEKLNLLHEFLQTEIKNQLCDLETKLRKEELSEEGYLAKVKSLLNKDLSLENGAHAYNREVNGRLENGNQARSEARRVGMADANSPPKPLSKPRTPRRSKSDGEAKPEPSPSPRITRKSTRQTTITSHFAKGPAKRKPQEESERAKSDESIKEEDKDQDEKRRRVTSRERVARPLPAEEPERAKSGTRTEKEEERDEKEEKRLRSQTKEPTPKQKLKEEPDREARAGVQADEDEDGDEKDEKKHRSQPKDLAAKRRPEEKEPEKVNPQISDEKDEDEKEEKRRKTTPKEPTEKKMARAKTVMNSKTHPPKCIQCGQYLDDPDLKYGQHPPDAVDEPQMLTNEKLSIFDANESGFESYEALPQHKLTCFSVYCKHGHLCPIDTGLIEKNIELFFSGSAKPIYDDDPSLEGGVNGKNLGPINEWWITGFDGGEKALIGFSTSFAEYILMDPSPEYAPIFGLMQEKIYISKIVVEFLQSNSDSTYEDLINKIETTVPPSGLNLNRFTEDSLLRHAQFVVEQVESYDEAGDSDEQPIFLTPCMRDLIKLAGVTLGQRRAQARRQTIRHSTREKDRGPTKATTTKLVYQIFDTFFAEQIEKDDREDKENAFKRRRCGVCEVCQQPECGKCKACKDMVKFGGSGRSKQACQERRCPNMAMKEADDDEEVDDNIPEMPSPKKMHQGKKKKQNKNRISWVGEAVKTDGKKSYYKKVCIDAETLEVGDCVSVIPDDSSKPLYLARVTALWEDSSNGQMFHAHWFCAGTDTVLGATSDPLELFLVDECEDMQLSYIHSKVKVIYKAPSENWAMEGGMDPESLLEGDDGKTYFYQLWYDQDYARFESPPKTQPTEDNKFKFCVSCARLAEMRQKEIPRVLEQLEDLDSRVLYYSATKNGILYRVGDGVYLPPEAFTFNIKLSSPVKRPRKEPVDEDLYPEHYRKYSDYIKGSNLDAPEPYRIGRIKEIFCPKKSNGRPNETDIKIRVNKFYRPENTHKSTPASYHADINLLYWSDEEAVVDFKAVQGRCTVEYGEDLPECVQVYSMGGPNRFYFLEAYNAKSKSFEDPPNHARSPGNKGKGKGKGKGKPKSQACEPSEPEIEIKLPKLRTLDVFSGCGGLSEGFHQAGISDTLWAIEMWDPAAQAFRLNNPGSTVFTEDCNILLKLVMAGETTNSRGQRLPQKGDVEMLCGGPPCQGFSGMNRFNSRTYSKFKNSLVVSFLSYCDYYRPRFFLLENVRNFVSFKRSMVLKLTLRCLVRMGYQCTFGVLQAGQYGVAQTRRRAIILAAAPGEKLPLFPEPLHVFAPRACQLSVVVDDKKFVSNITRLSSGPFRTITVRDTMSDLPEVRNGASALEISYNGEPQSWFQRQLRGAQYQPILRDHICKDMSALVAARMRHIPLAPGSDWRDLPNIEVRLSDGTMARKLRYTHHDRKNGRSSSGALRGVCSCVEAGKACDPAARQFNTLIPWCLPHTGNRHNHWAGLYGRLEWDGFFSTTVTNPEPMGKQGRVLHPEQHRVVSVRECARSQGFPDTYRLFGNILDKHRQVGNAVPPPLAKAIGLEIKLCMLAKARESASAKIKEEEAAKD
SMILES,"DNMT1 BioChemical (pIC50 category) [1, 3]",EC50 [2] [nM],"IC50 [1, 4] [nM]","IC50 [1, 5]"
"CC(C)(N)C(=O)NC1CCN(c2nc(SC(C(N)=O)c3ccccc3)c(C#N)c(C3CC3)c2C#N)CC1 (centres unmarked) [Example 374, 2-Amino-N-(1-(6-((2-amino-2-oxo-1-phenylethyl)thio)-3,5-dicyano-4-cyclopropylpyridin-2-yl)piperidin-4-yl)-2-methylpropanamide]",D (Category D: ≥6.5),316 to 1000,–,–
"CCc1c(C#N)c(SC(C(N)=O)c2ccc(C(N)=O)cc2)nc(N(C)C)c1C#N (centres unmarked) [Example 375, 4-(2-Amino-1-((3,5-dicyano-6-(dimethylamino)-4-ethylpyridin-2-yl)thio)-2-oxoethyl)benzamide]",D (Category D: ≥6.5),1000 to 31600,–,–
"CCc1c(C)c(N2CCC(N)CC2)nc(SC(C(N)=O)c2ccccc2)c1C#N (centres unmarked) [Example 376, 2-(6-(4-Aminopiperidin-1-yl)-3-cyano-4-ethyl-5-methylpyridin-2-ylthio)-2-phenylacetamide]",–,316 to 1000,316 to 1000,–
"CCc1c(C#N)c(SCc2ccc(OCCN(C)C)cc2)nc(N2CCCN(C)CC2)c1C#N [Example 377, 2-(4-(2-(Dimethylamino)ethoxy)benzylthio)-4-ethyl-6-(4-methyl-1,4-diazepan-1-yl)pyridine-3,5-dicarbonitrile]",–,> 31600,1000 to 31600,≥ 1000 nM
CCc1c(C#N)c(SC(C(N)=O)c2ccc(S(=O)(=O)NC)cc2)nc(N2CCCN(C)CC2)c1C#N (centres unmarked) [Example 378],–,1000 to 31600,316 to 1000,–
"CCc1c(C#N)c(SCc2ccc(S(C)(=O)=O)cc2)nc(N2CCCN(C)CC2)c1C#N [Example 379, 4-Ethyl-2-(4-methyl-1,4-diazepan-1-yl)-6-((4-(methylsulfonyl)benzyl)thio)pyridine-3,5-dicarbonitrile]",–,316 to 1000,316 to 1000,316 to 1000 nM and 794 nM
"CCc1c(C#N)c(SCc2cnn(CC(O)CO)c2)nc(N2CCC(N)CC2)c1C#N (centres unmarked) [Example 380, 2-(4-Aminopiperidin-1-yl)-6-(((1-(2,3-dihydroxypropyl)-1H-pyrazol-4-yl)methyl)thio)-4-ethylpyridine-3,5-dicarbonitrile, Hydrochloride]",–,1000 to 31600,316 to 1000,–
"CCc1c(C#N)c(SC(C(N)=O)c2ccccc2)nc(N2CCNCC(F)C2)c1C#N (centres unmarked) [Example 381, 2-((3,5-Dicyano-4-ethyl-6-(16-fluoro-1,4-diazepan-1-yl)pyridin-2-yl)thio)-2-phenylacetamide]",–,1000 to 31600,316 to 1000,–
"CCc1c(C#N)c(SC(C(N)=O)c2ccccc2)nc(N2CCC(N)C(F)(F)C2)c1C#N (centres unmarked) [Example 382, 2-((6-(4-Amino-3,3-difluoropiperidin-1-yl)-3,5-dicyano-4-ethylpyridin-2-yl)thio)-2-phenylacetamide]",D (Category D: ≥6.5),< 316,–,–
"CCc1c(C#N)c(SC(C(N)=O)c2ccccc2)nc(N2CCC(NC(=O)OC(C)(C)C)C(F)(F)C2)c1C#N (centres unmarked) [Example 383, tert-Butyl (1-(6-((2-amino-2-oxo-1-phenylethyl)thio)-3,5-dicyano-4-ethylpyridin-2-yl)-3,3-difluoropiperidin-4-yl) carbamate]",D (Category D: ≥6.5),316 to 1000,–,–
"CCc1c(C#N)c(SCc2ccc(N3CCN(C)CC3)cc2)nc(N2CCCN(C)CC2)c1C#N [Example 384, 4-Ethyl-2-(4-methyl-1,4-diazepan-1-yl)-6-((4-(4-methylpiperazin-1-yl)benzyl)thio)pyridine-3,5-dicarbonitrile]",–,> 31600,316 to 1000,–
"CCc1c(C#N)c(SCc2ccc(CNC3CCNC3=O)cc2)nc(N2CCCN(C)CC2)c1C#N (centres unmarked) [Example 385, 4-Ethyl-2-(4-methyl-1,4-diazepan-1-yl)-6-((4-(((2-oxopyrrolidin-3-yl)amino)methyl)benzyl)thio)pyridine-3,5-dicarbonitrile]",–,> 31600,316 to 1000,–
"CN(CCO)c1nc(SC(C(N)=O)c2ccccc2)c(C#N)c(C2CC2)c1C#N (centres unmarked) [Example 386, 2-((3,5-Dicyano-4-cyclopropyl-6-((2-hydroxyethyl)(methyl)amino)pyridin-2-yl)thio)-2-phenylacetamide]",–,1000 to 31600,316 to 1000,–
"N#Cc1c(SC(C(N)=O)c2ccccc2)nc(N2CC(O)C2)c(C#N)c1C1CC1 (centres unmarked) [Example 387, 2-((3,5-Dicyano-4-cyclopropyl-6-(13-hydroxyazetidin-1-yl)pyridin-2-yl)thio)-2-phenylacetamide]",D (Category D: ≥6.5),1000 to 31600,–,–
"CCc1c(C#N)c(SC(C(N)=O)c2ccccc2)nc(N2CCC(C(N)=O)C2)c1C#N (centres unmarked) [Example 388, 1-(6-((2-Amino-2-oxo-1-phenylethyl)thio)-3,5-dicyano-4-ethylpyridin-2-yl)pyrrolidine-3-carboxamide]",–,1000 to 31600,316 to 1000,–
"CCc1c(C#N)c(SCc2ccc3[nH]cnc3c2)nc(N2CCCN(C)CC2)c1C#N [Example 390, 2-(((1H-Benzo[d]imidazol-5-yl)methyl)thio)-4-ethyl-6-(4-methyl-1,4-diazepan-1-yl)pyridine-3,5-dicarbonitrile]",–,316 to 1000,316 to 1000,–
"CN(CCCN)c1nc(SC(C(N)=O)c2ccccc2)c(C#N)c(C2CC2)c1C#N (centres unmarked) [Example 391, 2-((6-((3-Aminopropyl) (methyl)amino-3,5-dicyano-4-cyclopropylpyridin-2-yl)thio-2-phenylacetamide, Hydrochloride]",D (Category D: ≥6.5),1000 to 31600,–,–
"CN(CC(=O)N1CC(O)C1)c1nc(SC(C(N)=O)c2ccccc2)c(C#N)c(C2CC2)c1C#N (centres unmarked) [Example 392, 2-((3,5-Dicyano-4-cyclopropyl-6-((2-(3-hydroxyazetidin-1-yl)-2-oxoethyl) (methyl)amino)pyridin-2-yl)thio)-2-phenylacetamide]",D (Category D: ≥6.5),316 to 1000,–,–
"CCc1c(C#N)c(SC(C(N)=O)c2ccccc2)nc(N2CCC(NCC(N)=O)CC2)c1C#N (centres unmarked) [Example 393, 2-((6-(4-((2-Amino-2-oxoethyl)amino)piperidin-1-yl)-3,5-dicyano-4-ethylpyridin-2-yl)thio)-2-phenylacetamide]",D (Category D: ≥6.5),316 to 1000,–,–
"CN(CC(N)=O)c1nc(SC(C(N)=O)c2ccccc2)c(C#N)c(C2CC2)c1C#N (centres unmarked) [Example 396, 2-((6-((2-Amino-2-oxoethyl)(methyl)amino)-3,5-dicyano-4-cyclopropylpyridin-2-yl)thio)-2-phenylacetamide]",–,1000 to 31600,316 to 1000,–

# Now from value to compound:
"DNMT1 BioChemical (pIC50 category) [1, 3]",EC50 [2] [nM],"IC50 [1, 4] [nM]","IC50 [1, 5]",SMILES
–,1000 to 31600,316 to 1000,–,"CN(CCOC(N)=O)c1nc(SC(C(N)=O)c2ccccc2)c(C#N)c(C2CC2)c1C#N (centres unmarked) [Example 397, 2-((6-((2-Amino-2-oxo-1-phenylethyl)thio-3,5-dicyano-4-cyclopropylpyridin-2-yl)methyl)amino)ethyl carbamate]"
D (Category D: ≥6.5),1000 to 31600,–,–,"CCc1c(C#N)c(SC(C(N)=O)c2ccccc2)nc(N2CCC(NC(=O)[C@H](N)CO)CC2)c1C#N (stereo partly drawn) [Example 398, (2R)-2-Amino-N-(1-(6-((2-amino-2-oxo-1-phenylethyl)thio)-3,5-dicyano-4-ethylpyridin-2-yl)piperidin-4-yl)-3-hydroxypropanamide]"
D (Category D: ≥6.5),1000 to 31600,–,–,CCc1c(C#N)c(SC(C(N)=O)c2ccccc2)nc(N2CCC(NC(=O)[C@@H](N)CO)CC2)c1C#N (some centres unmarked) [Example 399]
D (Category D: ≥6.5),1000 to 31600,–,–,"CCc1c(C#N)c(SC(C(N)=O)c2ccc(CC(N)=O)cc2)nc(N2CCCN(C)CC2)c1C#N (centres unmarked) [Example 400, 2-(4-(2-Amino-2-oxoethyl)phenyl)-2-(3,5-dicyano-4-ethyl-6-(4-methyl-1,4-diazepan-1-yl)pyridin-2-ylthio)acetamide]"
D (Category D: ≥6.5),1000 to 31600,–,–,"CCc1c(C#N)c(SC(C(N)=O)c2ccc(CC(N)=O)cc2)nc(N(C)C)c1C#N (centres unmarked) [Example 401, 2-(4-(2-Amino-2-oxoethyl)phenyl)-2-(3,5-dicyano-6-(dimethylamino)-4-ethylpyridin-2-ylthio)acetamide]"
D (Category D: ≥6.5),1000 to 31600,–,–,CCc1c(C#N)c(SC(C(N)=O)c2ccc(S(=O)(=O)NC)cc2)nc(N(C)C)c1C#N (centres unmarked) [Example 402]
–,316 to 1000,316 to 1000,–,"CCc1c(C#N)c(SCc2ccc(CS(C)(=O)=O)cc2)nc(N2CCCN(C)CC2)c1C#N [Example 403, 4-Ethyl-2-(4-methyl-1,4-diazepan-1-yl)-6-(4-(methylsulfonylmethyl)benzylthio)pyridine-3,5-dicarbonitrile]"
D (Category D: ≥6.5),< 316,–,–,"CCc1c(C#N)c(S[C@@H](C(N)=O)c2ccccc2)nc(N2CCC(N3CCCC3)CC2)c1C#N [Example 405, (R)-2-((3,5-Dicyano-4-ethyl-6-(4-(pyrrolidin-1-yl)piperidin-1-yl)pyridin-2-yl)thio)-2-phenylacetamide]"
D (Category D: ≥6.5),< 316,–,–,"CCc1c(C#N)c(S[C@@H](C(N)=O)c2ccccc2)nc(N2CCC(N(C)C)CC2)c1C#N [Example 406, (R)-2-((3,5-Dicyano-6-(4-(dimethylamino)piperidin-1-yl)-4-ethylpyridin-2-yl)thio)-2-phenylacetamide]"
D (Category D: ≥6.5),1000 to 31600,–,–,"CCc1c(C#N)c(SC(C(N)=O)c2cccc(OCCN(C)C)c2)nc(N(C)C)c1C#N (centres unmarked) [Example 407, 2-(3,5-dicyano-6-(dimethylamino)-4-ethylpyridin-2-ylthio)-2-(3-(2-(dimethylamino)ethoxy)phenyl)acetamide]"
